{
  "source": "patent US20180296542A1",
  "about": "“IMINOSUGARS FOR IMPROVING BONE MINERAL DENSITY IN BONE DISEASE” (Saint Louis University, priority 2015, published 2018)",
  "key": {"[1]": {"system": "TNSALP-null (Akp2^−/−) mice, in vivo model of infantile HPP (wild-type, heterozygous, homozygous)", "assay": "MicroCT bone mineral density of femur cortical bone after one month of Miglustat (Example 1)", "conditions": "for Mean/Density [mg HA/ccm] of TV (Apparent) (BMD), individual mice: femur diaphysis cortical bone, one value per mouse", "description": "-null (Akp2^-/-) mice served as an in vivo model of infantile HPP to analyze the effects of Miglustat as a treatment for HPP through BMD measurements. […] Resembling patients with HPP, elevated substrate concentrations of PEA, PPi, and PLP were found in urine samples from knock-out mice. […] All experiments were conducted with the highest standards of humane animal care at Saint Louis University under an approved IACUC protocol. Mice were genotyped as wild-type, heterozygous, or homozygous through DNA extraction, polymerase chain reaction (PCR), and gel electrophoresis. After DNA was extracted from an ear tissue sample, PCR was used to generate copies of the DNA for gel electrophoresis (2% agarose and Tris-Acetate-EDTA (TAE) buffer). The following primers were used: [NT] ID NO:1), [NT] ID NO:2), [NT] ID NO:3, wild-type allele: 160 bp, mutant allele: 195 bp). At the age of one month, mice were administered 100 μL injections of phosphate-buffered saline (PBS) with 0 mg/kg, 400 mg/kg, or 1200 mg/kg of Miglustat (250 mg/mL) to the peritoneal cavity for gradual diffusion of the drug. Mice were massed each day to adjust Miglustat dosages to body weight. Intraperitoneal injections (IP) continued daily for one month before mice were euthanized with CO2 at the age of two months. Mice were on a Pyridoxine Supplement Diet (“Vitamin B6 Diet”) to prevent seizures. […] (Systems EngineeringTM) was provided every alternating day to prevent dehydration. Urine samples were collected once a week and blood samples were collected from cheek tissue at the beginning and end of treatment. Full-body ventral and side-view x-rays were taken after euthanizing the mice. The left anatomical legs were dissected to obtain the femoral bones. Femurs were then frozen before being placed in 10% formalin the day prior to microCT scanning. Four bones were inserted into a gel cast (2.5% agarose and TAE buffer) at a time and covered with 2.5% agarose and TAE buffer to create gel capsules that were placed in sample tubes (diameter: 11.5 mm, height: 75 mm) for microCT scanning Cortical bone scans (voxel size: 12 μm) were performed at the diaphysis (femoral shaft) using a SCANCO μCT 35 system (SCANCO Medical; Brü[…], Switzerland). MicroCT scans were analyzed using SCANCO Medical microCT software to produce three dimensional reconstructions of the bones and determine bone mineral density (BMD) as the mean/density [mg HA/ccm] of total volume (TV) (Apparent). The total length of each bone was measured as the distance from the greater trochanter to the distal end. Only the middle 20% of each femur was accounted for during cortical bone analysis. Statistical analysis included calculating the average mean/density [mg HA/ccm] of TV (Apparent) and standard error for each treatment group to determine the estimated standard deviation of the statistics. Standard deviation and standard error were not calculated for homozygous mice due to count values below three. Full-body ventral and side x-rays were taken and microCT scans were performed on the femurs of each mouse. The bone mineral densities of the femurs were recorded in units of hydroxyapatite density as the mean/density [mg HA/ccm] of TV (apparent). The average bone mineral densities (average mean/density [mg HA/ccm] of TV (apparent) were then calculated for each treatment group. Statistical analysis, including standard deviation and standard error, was only performed for the wild-types and heterozygotes due to insufficient data for the homozygous mice. A minimum of three mice were required for statistical analysis."}, "[2]": {"system": "TNSALP-null (Akp2^−/−) mice, in vivo model of bone disease (WT, Het, KO)", "assay": "MicroCT of femur cortical bone (Example 2)", "conditions": "for Normalized bone area-cortical bone volume fraction: FIG. 17", "description": "TNSALP-null (Akp2^−/−) mice served as an in vivo model of bone disease to analyze the effects of the iminosugar, Miglustat.\n(§1) Mice were obtained, bred and genotyped as described above. Five mice of each genotype (Wild-type (WT), heterozygous (Het), and homozygous (KO)) were included in each treatment group (i.p. administration of PBS, 400 mg/kg Miglustat, and 1200 mg/kg Miglustat as described above). A total of 44 mice were analyzed (1 Akp2^−/− homozygous mouse was omitted in the PBS group). Mice were scanned using microCT and analyzed as described above. Cortical bone in the middle 20% of bone length from trochanter to distal condyles in the femur was scanned and cortical thickness and bone mineral density were obtained. Cortical thickness (Ct.Th, μm) was used as an indication of average thickness of cortical bone. Trabecular bone of the final 625 μm before the femoral growth plate was scanned.\nAs depicted in FIG. 14, Miglustat improved cortical thickness in heterozygous mice at 400 mg/kg. […] Cortical bone area (Ct.Ar, mm^2) was determined by dividing cortical volume by the number of slices X slice thickness. As depicted in FIG. 16, cortical bone area increased in Wild-type (WT) and Heterozygotes (Het) administered 400 mg/kg Miglustat. […] In Homozygotes administered 1,200 mg/kg normalized bone area-cortical bone volume fraction decreased.\nThe attenuation depended on physical density and electron density of bone. As depicted in FIG. 18, high doses of Miglustat improved tissue mineral density in Heterozygotes."}, "[3]": {"system": "TNSALP-null (Akp2^−/−) mice (WT, Het, KO)", "assay": "Growth (percent change in weight) and toxicity in treated mice (Example 2)", "format": "in vivo", "description": "At the age of one month, mice were administered 100 μL injections of phosphate-buffered saline (PBS) with 0 mg/kg, 400 mg/kg, or 1200 mg/kg of Miglustat (250 mg/mL) to the peritoneal cavity for gradual diffusion of the drug. Mice were massed each day to adjust Miglustat dosages to body weight. Intraperitoneal injections (IP) continued daily for one month before mice were euthanized with CO2 at the age of two months. Mice were on a Pyridoxine Supplement Diet (“Vitamin B6 Diet”) to prevent seizures. NAPA NECTAR™ (Systems Engineering™) was provided every alternating day to prevent dehydration. Urine samples were collected once a week and blood samples were collected from cheek tissue at the beginning and end of treatment.\nas §1, with “Cortical thickness (Ct.Th, μm) was used as an indication of average thickness of cortical bone. Trabecular bone of the final 625 μm before the femoral growth plate was scanned.” left out"}, "patients with Type 1 GD": {"system": "patients with Type 1 GD", "conditions": "cited from earlier work"}, "[4]": {"conditions": "homozygous mice, Miglustat 400 mg/kg"}},
  "note": "Several values for one entry are separate records, joined by “and”; a condition that tells them apart may be missing. Identical values can stand only once. Entries after “also recorded” stand apart in the source; their conditions may differ.",
  "data": [
    {"smiles": "CCCCN1C[C@H](O)[C@@H](O)[C@H](O)[C@H]1CO", "note": "[Miglustat, (2R,3R,4R,5S)-1-butyl-2-(hydroxymethyl)piperidine-3,4,5-triol]", "values": [
      {"measurement": "Average BMD with Miglustat dosage versus PBS groups (in words)", "setting": "[1]; across genotypes, except wild-type mice at 1200 mg/kg, one month of treatment, 1200 mg/kg", "value": "higher average BMDs; also recorded: BMD increased with Miglustat dosage; also recorded: higher average BMD values"},
      {"measurement": "Average BMD versus PBS heterozygotes (in words)", "setting": "[1]; heterozygous mice, Miglustat 400 mg/kg", "value": "slight improvement; also recorded: higher average BMD value"},
      {"measurement": "Mean/Density [mg HA/ccm] of TV (Apparent) (BMD), individual mice", "setting": "[1]; heterozygous mice, Miglustat 400 mg/kg IP daily for one month", "value": "983.17 mg HA/ccm and 937.07 mg HA/ccm and 968.62 mg HA/ccm"},
      {"measurement": "Average Mean/Density [mg HA/ccm] of TV (Apparent) (average BMD)", "setting": "[1]; heterozygous mice, Miglustat 400 mg/kg, n=3, ± standard error", "value": "962.95±13.61 mg HA/ccm and 962.95 mg HA/ccm"},
      {"measurement": "Average BMD versus PBS heterozygotes and PBS wild-types (in words)", "setting": "[1]; heterozygous mice, Miglustat 1200 mg/kg", "value": "even greater improvement; also recorded: match or even surpass; also recorded: matched and surpassed"},
      {"measurement": "Mean/Density [mg HA/ccm] of TV (Apparent) (BMD), individual mice", "setting": "[1]; heterozygous mice, Miglustat 1200 mg/kg IP daily for one month", "value": "980.88 mg HA/ccm and 984.82 mg HA/ccm and 979.78 mg HA/ccm and 1006.65 mg HA/ccm"},
      {"measurement": "Average Mean/Density [mg HA/ccm] of TV (Apparent) (average BMD)", "setting": "[1]; heterozygous mice, Miglustat 1200 mg/kg, n=4, ± standard error", "value": "988.03±6.30 mg HA/ccm and 988.03 mg HA/ccm"},
      {"measurement": "Differences in mineralization in microCT scans between treatments", "setting": "[1]; heterozygous mice, PBS vs 400 vs 1200 mg/kg Miglustat", "value": "not discernable"},
      {"measurement": "Mean/Density [mg HA/ccm] of TV (Apparent) (BMD), individual mice", "setting": "[1]; homozygous (Akp2^−/−) mice, Miglustat 400 mg/kg IP daily for one month", "value": "881.08 mg HA/ccm and 1054.98 mg HA/ccm"},
      {"measurement": "Average Mean/Density [mg HA/ccm] of TV (Apparent) (average BMD)", "setting": "[1]; homozygous (Akp2^−/−) mice, Miglustat 400 mg/kg, n=2", "value": 968.03, "unit": "mg HA/ccm"},
      {"measurement": "Average BMD versus knockouts on PBS (in words)", "setting": "[1]; [4]", "value": "substantial difference; also recorded: higher average BMD"},
      {"measurement": "Cortical bone mineralization at the diaphysis in microCT scans", "setting": "[1]; [4]", "value": "improper cortical bone mineralization"},
      {"measurement": "Average BMD versus other treatment groups (in words)", "setting": "[1]; wild-type mice, Miglustat 400 mg/kg", "value": "greater; also recorded: increased; also recorded: highest average BMD"},
      {"measurement": "Mean/Density [mg HA/ccm] of TV (Apparent) (BMD), individual mice", "setting": "[1]; wild-type mice, Miglustat 400 mg/kg IP daily for one month", "value": "1000.00 mg HA/ccm and 990.58 mg HA/ccm and 991.31 mg HA/ccm and 1004.30 mg HA/ccm and 995.88 mg HA/ccm"},
      {"measurement": "Average Mean/Density [mg HA/ccm] of TV (Apparent) (average BMD)", "setting": "[1]; wild-type mice, Miglustat 400 mg/kg, n=5, ± standard error", "value": "996.41±2.60 mg HA/ccm and 996.41 mg HA/ccm"},
      {"measurement": "Average BMD versus PBS wild-type group (in words)", "setting": "[1]; wild-type mice, Miglustat 1200 mg/kg", "value": "no change"},
      {"measurement": "Mean/Density [mg HA/ccm] of TV (Apparent) (BMD), individual mice", "setting": "[1]; wild-type mice, Miglustat 1200 mg/kg IP daily for one month", "value": "973.20 mg HA/ccm and 985.09 mg HA/ccm and 969.63 mg HA/ccm and 967.00 mg HA/ccm"},
      {"measurement": "Average Mean/Density [mg HA/ccm] of TV (Apparent) (average BMD)", "setting": "[1]; wild-type mice, Miglustat 1200 mg/kg, n=4, ± standard error", "value": "974.48±3.63 mg HA/ccm and 974.48 mg HA/ccm"},
      {"measurement": "Total cross sectional area inside the periosteal envelope (Tt.Ar)", "setting": "[2]; Heterozygotes, 400 mg/kg, FIG. 15", "value": "slight increase"},
      {"measurement": "Tissue mineral density", "setting": "[2]; Heterozygotes, high doses, FIG. 18", "value": "improved"},
      {"measurement": "Normalized bone area-cortical bone volume fraction", "setting": "[2]; Homozygotes, 1,200 mg/kg", "value": "decreased"},
      {"measurement": "Cortical bone area (Ct.Ar)", "setting": "[2]; Wild-type (WT) and Heterozygotes (Het), 400 mg/kg, FIG. 16", "value": "increased"},
      {"measurement": "Normalized bone area-cortical bone volume fraction", "setting": "[2]; Wild-type and Heterozygotes", "value": "did not have an effect"},
      {"measurement": "Cortical thickness (Ct.Th)", "setting": "[2]; heterozygous mice, 400 mg/kg, FIG. 14", "value": "improved"},
      {"measurement": "Toxicity", "setting": "[3]; 400 mg/kg/day and 1,200 mg/kg/day delivered intraperitoneally", "value": "no toxicity was observed"},
      {"measurement": "Growth as measured by percent change in weight", "setting": "[3]; high doses of Miglustat, particularly notable in WT and Het mice, FIG. 12", "value": "impeded growth"},
      {"measurement": "BMD", "setting": "patients with Type 1 GD", "value": "increased"},
      {"measurement": "Bone pain", "setting": "patients with Type 1 GD", "value": "alleviated"}
    ]}
  ]
}
